Values joined by “and” are separate entries in the source; they are usually repeats but may differ in a detail not shown here. Identical values can stand only once. Like-named read-outs stand apart in the source and are kept apart here.
Test: Single dose oral PK study in male Sprague Dawley rats (plasma by LC-MS/MS)
Format: in vivo
Settings: for AUC(0-inf) / AUC(0-t) / half-life / Cmax / MRT last: po; for AUC(0-inf): read-out: AUCinf of PRX-P5-006; for AUC(0-t): read-out: AUClast of PRX-P5-006; for half-life: read-out: T1/2 of PRX-P5-006 (converted); for MRT last: read-out: MRTlast of PRX-P5-006
Experimental: We describe here PK results of prodrugs of PRX-002 (−) or (+) isomers. All doses of prodrugs were administered such that they were equivalent to 5 mg/kg of PRX-002 (−) or (+) for oral studies and 2 mg/kg PRX-002 (−) or (+) for intravenous studies in male Sprague-Dawley (MSD) rats. Higher doses of up to 10 or 15 mg/kg [again equivalent to PRX-002 (−)] were used in some studies (as specified)]. Formulation preparation, dose administration and time of sample collection was as follows.
Test item was weighed [5 mg equivalent dose of PRX-002 for prodrugs] and transferred to a graduated tube. Then 10 μL of Tween 80 was added and vortexed mixed until the test item was completely mixed. Small volume of 0.5% (w/v) carboxymethylcellulose in water solution was then added dropwise with continuous vortex mixing until a uniform suspension was obtained. The final volume was then made up to 10 mL with 0.5% (w/v) carboxymethylcellulose in water with final strength of 0.5 mg/mL. […] This formulation was freshly prepared before the administration to animals.
(§1) Adult male Sprague Dawley Rats aged 8-10 weeks were used for the study. Fasted animals were administered test item by oral route with a dose of 5 mg/kg body weight at dose volume of 10 mL/kg body weight. Under mild isoflurane anesthesia, blood specimens were collected by retro-orbital puncture method using capillary tubes into pre-labeled tubes containing anticoagulant (K2EDTA-2 mg/mL blood) during the next 24 hours of post dose as mentioned in below table. For blood sampling at multiple time points, right and left eyes were used alternatively for blood collection. Collected blood specimens were centrifuged at 4000 rpm, 4° C. for 10 minutes and plasma were separated and stored at −80° C. until analysis.
Blood was collected as outlined in Table 39.1 (oral).
Test item PRX-P4-003 was weighed and transferred to a graduated tube. Then 12.42 μL of Tween 80 was added and vortexed mixed until the test item was completely mixed. Small volume of 0.5% (w/v) Carboxymethylcellulose in water solution was then added dropwise with continuous vortex mixing until a uniform suspension was obtained. The final volume was then made up to 12.42 mL with 0.5% (w/v) Carboxymethylcellulose in water with final strength of 1.0 mgA/mL. […] This formulation was freshly prepared before the administration to animals.
as §1, with “with a PRX-P4-003” for “test item”, “10” for “5”
Test item PRX-P5-006 was weighed and transferred to a graduated tube. Then 10 μL of Tween 80 was added and vortexed mixed until the test item was completely mixed. Small volume of 0.5% (w/v) Carboxymethylcellulose in water solution was then added dropwise with continuous vortex mixing until a uniform suspension was obtained. The final volume was then made up to 10 mL with 0.5% (w/v) Carboxymethylcellulose in water with final strength of 3.97 mg/mL. […] This formulation was freshly prepared before the administration to animals.
Adult male Sprague Dawley Rats aged 8-10 weeks were used for the study. Fasted animals were administered with a PRX-P5-006 by oral route with a dose of 15 mg/kg body weight at dose volume of 10 mL/kg body weight. […]

[1] = PRX-P5-006 oral 5 mg/kg b.w., individual animals, 5 mg/kg
[2] = PRX-P5-006 oral 5 mg/kg, mean, 5 mg/kg
[3] = male, Sprague Dawley, rat, in vivo, 5 mg/kg, PRX-P5-006 oral 5 mg/kg, mean
[4] = male, Sprague-Dawley, rat, in vivo, 5 mg/kg, PRX-P5-006 oral 5 mg/kg b.w., individual animals

For `CCCCCCCCCCCCCCCCCC(=O)OC(C)OC(=O)N(CC)C1C2CCC(C2)C1c1ccccc1` (single isomer, unassigned) [PRX-P5-006, N-(1-Octadecanoyloxyethoxycarbonyl)-(−)-N-ethyl-3-phenylbicyclo[2.2.1]heptan-2-amine], the “AUC% extrap of PRX-P5-006” value [1] was 62.02% and 50.02% and 31.64%, the “AUCinf of PRX-P5-006” value [1] was 132.93 ng·h/mL and 88.37 ng·h/mL and the “AUClast of PRX-P5-006” value [1] was 66.44 ng·h/mL and 60.40 ng·h/mL. The “Cmax of PRX-P5-006” value [1] was 72.65 ng/mL and 67.85 ng/mL, the “MRTlast of PRX-P5-006” value [1] was 1.05 h and the “T1/2 of PRX-P5-006” value [1] was 3.31 h and 1.91 h. For the same molecule, the “AUC% extrap of PRX-P5-006” value [2] was 47.896 ± 15.3010% and 47.896%, the “T1/2 of PRX-P5-006” value [2] was 2.907 h and the AUC(0-inf) [3] was 115 ± 23.3 ng·h/mL. For the same molecule, the AUC(0-t) [3] was 57.8 ± 10.2 ng·h/mL, the half-life [3] was 2.91 ± 0.865 h and the Cmax (male, Sprague Dawley, rat, in vivo, 15 mg/kg, oral 15 mg/kg (footnote *), analyte: prodrug in plasma, mean, read-out: Oral PK Parameters Cmax, Prodrug) was 81.6 ± 42.2 ng/mL. It also gave a Tmax (male, Sprague Dawley, rat, in vivo, oral 5 mg/kg [equivalent to PRX-002 (−)], analyte: prodrug in plasma, mean, read-out: Oral PK Parameters Tmax, Prodrug) of 0 h, an AUC (male, Sprague Dawley, rat, in vivo, oral 15 mg/kg (footnote *), analyte: prodrug in plasma, mean, read-out: Oral PK Parameters AUC, Prodrug) of 477 ± 54.4 ng·h/mL and a Tmax (male, Sprague Dawley, rat, in vivo, oral 15 mg/kg (footnote *), analyte: prodrug in plasma, mean, read-out: Oral PK Parameters Tmax, Prodrug) of 0.8 ± 0.3 h. For the same molecule, the AUC(0-inf) [4] was 123 ng·h/mL, the AUC(0-t) [4] was 46.6 ng·h/mL and the Cmax (male, Sprague-Dawley, rat, in vivo, 5 mg/kg, PRX-P5-006 oral 5 mg/kg b.w., individual animals, read-out: Cmax of PRX-P5-006) was 43.9 ng/mL. It also gave an MRT last [4] of 1.1 h, a half-life [4] of 3.5 h and a Cmax (male, Sprague-Dawley, rat, in vivo, 5 mg/kg, PRX-P5-006 oral 5 mg/kg, mean, read-out: Cmax of PRX-P5-006) of 61.5 ± 15.4 ng/mL. For the same molecule, the MRT last (male, Sprague-Dawley, rat, in vivo, 5 mg/kg, PRX-P5-006 oral 5 mg/kg, mean) was 1.07 ± 0.025 h and the Tmax (male, Sprague-Dawley, rat, in vivo, PRX-P5-006 oral 5 mg/kg, mean, read-out: Tmax of PRX-P5-006) was 1 h.

With `CCCCCCCCCCCCCCCCCC(=O)OC(C)OC(=O)N(CC)C1C2CCC(C2)C1c1ccccc1` (single isomer, unassigned) [PRX-P5-011, N-(1-Octadecanoyloxyethoxycarbonyl)-(+)-N-ethyl-3-phenylbicyclo[2.2.1]heptan-2-amine] the “Plasma concentration of PRX-P5-011” value (PRX-P5-011 oral (5 mg/kg equivalent), 0.00 h, individual animals) was 0.00 ng/mL, the “Plasma concentration of PRX-P5-011” value (PRX-P5-011 oral (5 mg/kg equivalent), 0.00 h, mean) was 0.000 ng/mL and the “Plasma concentration of PRX-P5-011” value (PRX-P5-011 oral (5 mg/kg equivalent), 0.08 h, individual animals) was 0.00 ng/mL. The “Plasma concentration of PRX-P5-011” value (PRX-P5-011 oral (5 mg/kg equivalent), 0.08 h, mean) was 0.000 ng/mL, the “Plasma concentration of PRX-P5-011” value (PRX-P5-011 oral (5 mg/kg equivalent), 0.25 h, individual animals) was 0.00 ng/mL and the “Plasma concentration of PRX-P5-011” value (PRX-P5-011 oral (5 mg/kg equivalent), 0.25 h, mean) was 0.000 ng/mL. For the same molecule, the “Plasma concentration of PRX-P5-011” value (PRX-P5-011 oral (5 mg/kg equivalent), 0.50 h, individual animals) was 0.00 ng/mL, the “Plasma concentration of PRX-P5-011” value (PRX-P5-011 oral (5 mg/kg equivalent), 0.50 h, mean) was 0.000 ng/mL and the “Plasma concentration of PRX-P5-011” value (PRX-P5-011 oral (5 mg/kg equivalent), 1.00 h, individual animals) was 0.00 ng/mL. The “Plasma concentration of PRX-P5-011” value (PRX-P5-011 oral (5 mg/kg equivalent), 1.00 h, mean) was 0.000 ng/mL, the “Plasma concentration of PRX-P5-011” value (PRX-P5-011 oral (5 mg/kg equivalent), 2.00 h, individual animals) was 0.00 ng/mL and the “Plasma concentration of PRX-P5-011” value (PRX-P5-011 oral (5 mg/kg equivalent), 2.00 h, mean) was 0.000 ng/mL. For the same molecule, the “Plasma concentration of PRX-P5-011” value (PRX-P5-011 oral (5 mg/kg equivalent), 4.00 h, individual animals) was 0.00 ng/mL, the “Plasma concentration of PRX-P5-011” value (PRX-P5-011 oral (5 mg/kg equivalent), 4.00 h, mean) was 0.000 ng/mL and the “Plasma concentration of PRX-P5-011” value (PRX-P5-011 oral (5 mg/kg equivalent), 6.00 h, individual animals) was 0.00 ng/mL. For the same molecule, the “Plasma concentration of PRX-P5-011” value (PRX-P5-011 oral (5 mg/kg equivalent), 6.00 h, mean) was 0.000 ng/mL, the “Plasma concentration of PRX-P5-011” value (PRX-P5-011 oral (5 mg/kg equivalent), 24.00 h, individual animals) was 0.00 ng/mL and the “Plasma concentration of PRX-P5-011” value (PRX-P5-011 oral (5 mg/kg equivalent), 24.00 h, mean) was 0.000 ng/mL. For the same molecule, the “Active compound PRX-002 (+) in plasma” value (PRX-P5-011 oral administration) was “not detected”, the concentration at 0 h (male, Sprague-Dawley, rat, in vivo, PRX-P5-011 oral (5 mg/kg equivalent), 0.00 h, individual animals, read-out: Plasma concentration of PRX-P5-011) was 0 ng/mL and the concentration at 0.08 h (male, Sprague-Dawley, rat, in vivo, PRX-P5-011 oral (5 mg/kg equivalent), 0.08 h, individual animals, read-out: Plasma concentration of PRX-P5-011) was 0 ng/mL. The concentration at 0.25 h (male, Sprague-Dawley, rat, in vivo, PRX-P5-011 oral (5 mg/kg equivalent), 0.25 h, individual animals, read-out: Plasma concentration of PRX-P5-011) was 0 ng/mL, the concentration at 0.5 h (male, Sprague-Dawley, rat, in vivo, PRX-P5-011 oral (5 mg/kg equivalent), 0.50 h, individual animals, read-out: Plasma concentration of PRX-P5-011) was 0 ng/mL and the concentration at 1 h (male, Sprague-Dawley, rat, in vivo, PRX-P5-011 oral (5 mg/kg equivalent), 1.00 h, individual animals, read-out: Plasma concentration of PRX-P5-011) was 0 ng/mL. The concentration at 2 h (male, Sprague-Dawley, rat, in vivo, PRX-P5-011 oral (5 mg/kg equivalent), 2.00 h, individual animals, read-out: Plasma concentration of PRX-P5-011) was 0 ng/mL, the concentration at 4 h (male, Sprague-Dawley, rat, in vivo, PRX-P5-011 oral (5 mg/kg equivalent), 4.00 h, individual animals, read-out: Plasma concentration of PRX-P5-011) was 0 ng/mL and the concentration at 6 h (male, Sprague-Dawley, rat, in vivo, PRX-P5-011 oral (5 mg/kg equivalent), 6.00 h, individual animals, read-out: Plasma concentration of PRX-P5-011) was 0 ng/mL. The concentration at 24 h (male, Sprague-Dawley, rat, in vivo, PRX-P5-011 oral (5 mg/kg equivalent), 24.00 h, individual animals, read-out: Plasma concentration of PRX-P5-011) was 0 ng/mL and the “Oral PK Parameters Tmax, Prodrug” value (oral 5 mg/kg [equivalent to PRX-002 (−)], analyte: prodrug in plasma, mean) was 0 h.

From patent US10662146B2, “Prodrugs of fencamfamine” (Praxis Bioresearch, LLC, priority 2015, dated 2020)
